From ChEMBL document CHEMBL4765228, “Indole-like Trk receptor antagonists” (Eur J Med Chem, 2016) come the findings set out here.

Test [1] deals with T1, Interleukin-1 receptor-associated kinase 4 (Homo sapiens) (UniProt Q9NWZ3).
T1 sequence (whole entry): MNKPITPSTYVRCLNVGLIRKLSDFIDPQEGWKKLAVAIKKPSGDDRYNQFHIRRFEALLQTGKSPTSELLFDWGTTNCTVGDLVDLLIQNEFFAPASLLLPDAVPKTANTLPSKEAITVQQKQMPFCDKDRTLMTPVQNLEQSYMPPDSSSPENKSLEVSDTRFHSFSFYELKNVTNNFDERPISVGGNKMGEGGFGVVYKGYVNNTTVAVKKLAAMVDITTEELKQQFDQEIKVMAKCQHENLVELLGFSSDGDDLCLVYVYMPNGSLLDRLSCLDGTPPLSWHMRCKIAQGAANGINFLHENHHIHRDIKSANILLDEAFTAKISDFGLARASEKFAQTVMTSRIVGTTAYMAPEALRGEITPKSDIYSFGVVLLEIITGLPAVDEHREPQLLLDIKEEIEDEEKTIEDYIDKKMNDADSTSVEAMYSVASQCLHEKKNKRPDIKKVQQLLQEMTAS
In words: Inhibition of human untagged IRAK4 assessed as residual activity at 0.1 uM relative to control.

Test [2] has as its target T2, Mitogen-activated protein kinase kinase kinase 7 (Homo sapiens) (UniProt O43318).
T2 sequence (whole entry): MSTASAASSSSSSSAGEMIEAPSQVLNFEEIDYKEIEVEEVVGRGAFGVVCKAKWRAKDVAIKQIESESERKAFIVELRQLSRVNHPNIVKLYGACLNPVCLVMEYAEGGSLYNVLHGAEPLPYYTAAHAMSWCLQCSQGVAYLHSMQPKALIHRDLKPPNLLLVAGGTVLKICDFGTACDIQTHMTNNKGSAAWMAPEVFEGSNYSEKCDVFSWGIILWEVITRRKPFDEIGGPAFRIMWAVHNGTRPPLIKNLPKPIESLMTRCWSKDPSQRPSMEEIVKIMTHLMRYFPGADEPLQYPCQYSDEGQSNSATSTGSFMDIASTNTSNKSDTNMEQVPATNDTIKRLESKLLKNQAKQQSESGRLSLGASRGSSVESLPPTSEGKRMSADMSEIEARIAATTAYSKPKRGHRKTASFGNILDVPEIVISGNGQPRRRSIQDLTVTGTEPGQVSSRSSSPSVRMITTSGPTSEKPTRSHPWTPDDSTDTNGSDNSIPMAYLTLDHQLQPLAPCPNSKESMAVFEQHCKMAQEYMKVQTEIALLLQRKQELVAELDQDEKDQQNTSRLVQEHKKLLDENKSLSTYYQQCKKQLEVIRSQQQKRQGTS
Nature of the test: Inhibition of human MAP3K7 assessed as residual activity at 1 uM relative to control.

In test [3] the target is T1, Interleukin-1 receptor-associated kinase 4 (Homo sapiens). Nature of the test: Inhibition of human untagged IRAK4 assessed as residual activity at 1 uM relative to control.
Test [4] addresses T3, Eukaryotic elongation factor 2 kinase (Homo sapiens) (UniProt O00418).
T3 sequence (whole entry): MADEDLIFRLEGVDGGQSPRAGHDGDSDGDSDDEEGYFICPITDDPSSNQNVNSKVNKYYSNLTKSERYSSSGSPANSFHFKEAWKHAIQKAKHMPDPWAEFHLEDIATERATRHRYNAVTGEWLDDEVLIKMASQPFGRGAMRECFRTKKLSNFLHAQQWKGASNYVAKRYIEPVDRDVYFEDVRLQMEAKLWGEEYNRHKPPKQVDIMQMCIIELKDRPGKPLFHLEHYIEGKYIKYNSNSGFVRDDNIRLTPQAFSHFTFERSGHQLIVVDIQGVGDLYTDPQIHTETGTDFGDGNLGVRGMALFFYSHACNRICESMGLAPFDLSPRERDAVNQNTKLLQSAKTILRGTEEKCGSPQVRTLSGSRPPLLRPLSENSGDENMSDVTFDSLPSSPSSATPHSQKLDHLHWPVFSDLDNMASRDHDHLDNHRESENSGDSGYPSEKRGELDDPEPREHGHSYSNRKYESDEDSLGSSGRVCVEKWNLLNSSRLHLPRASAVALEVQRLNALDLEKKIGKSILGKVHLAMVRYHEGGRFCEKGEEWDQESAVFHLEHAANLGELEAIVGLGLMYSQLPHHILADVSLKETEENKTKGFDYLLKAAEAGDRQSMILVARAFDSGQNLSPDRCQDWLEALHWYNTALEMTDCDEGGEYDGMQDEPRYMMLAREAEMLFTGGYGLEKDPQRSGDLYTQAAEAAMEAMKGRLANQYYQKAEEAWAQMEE
In words: Inhibition of human EEF2K assessed as residual activity at 1 uM relative to control.

The target in test [5] is Serine/threonine-protein kinase N2 (Homo sapiens) (UniProt Q16513). In words: Inhibition of human PRK2 assessed as residual activity at 1 uM relative to control.
The target in test [6] is Serine/threonine-protein kinase Chk2 (Homo sapiens) (UniProt O96017). In words: Inhibition of human CHK2 assessed as residual activity at 1 uM relative to control.
The target of test [7] is Rho-associated protein kinase 2 (Homo sapiens) (UniProt O75116). In words: Inhibition of human ROCK2 assessed as residual activity at 1 uM relative to control.
For test [8], the target named is 5'-AMP-activated protein kinase catalytic subunit alpha-1 (Homo sapiens) (UniProt Q13131). Nature of the test: Inhibition of human AMPKalpha1 (1 to 550 residues assessed as residual activity at 1 uM relative to control.
Test [9] deals with RAC-alpha serine/threonine-protein kinase (Homo sapiens) (UniProt P31749). Nature of the test: Inhibition of human AKT1 (104 to 408 residues) assessed as residual activity at 1 uM relative to control.
The target of test [10] is 3-phosphoinositide-dependent protein kinase 1 (Homo sapiens) (UniProt O15530). Nature of the test: Inhibition of human PDK1 assessed as residual activity at 0.1 uM relative to control.
In test [11] the target is Aurora kinase B (Homo sapiens) (UniProt Q96GD4). In words: Inhibition of human Aurora-B assessed as residual activity at 1 uM relative to control.
Chain of Aurora kinase B (Homo sapiens) (Q96GD4 whole entry): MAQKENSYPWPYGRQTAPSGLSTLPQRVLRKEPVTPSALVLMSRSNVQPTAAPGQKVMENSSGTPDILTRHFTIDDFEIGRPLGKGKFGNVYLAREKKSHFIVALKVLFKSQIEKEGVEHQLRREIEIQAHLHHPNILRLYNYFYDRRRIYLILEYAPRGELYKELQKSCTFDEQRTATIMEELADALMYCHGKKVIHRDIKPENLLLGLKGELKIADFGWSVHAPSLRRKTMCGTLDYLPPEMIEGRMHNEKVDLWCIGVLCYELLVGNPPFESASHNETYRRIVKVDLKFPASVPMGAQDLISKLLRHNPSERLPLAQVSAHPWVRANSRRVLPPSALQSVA

Chain of Serine/threonine-protein kinase N2 (Homo sapiens) (Q16513 whole entry, looked up): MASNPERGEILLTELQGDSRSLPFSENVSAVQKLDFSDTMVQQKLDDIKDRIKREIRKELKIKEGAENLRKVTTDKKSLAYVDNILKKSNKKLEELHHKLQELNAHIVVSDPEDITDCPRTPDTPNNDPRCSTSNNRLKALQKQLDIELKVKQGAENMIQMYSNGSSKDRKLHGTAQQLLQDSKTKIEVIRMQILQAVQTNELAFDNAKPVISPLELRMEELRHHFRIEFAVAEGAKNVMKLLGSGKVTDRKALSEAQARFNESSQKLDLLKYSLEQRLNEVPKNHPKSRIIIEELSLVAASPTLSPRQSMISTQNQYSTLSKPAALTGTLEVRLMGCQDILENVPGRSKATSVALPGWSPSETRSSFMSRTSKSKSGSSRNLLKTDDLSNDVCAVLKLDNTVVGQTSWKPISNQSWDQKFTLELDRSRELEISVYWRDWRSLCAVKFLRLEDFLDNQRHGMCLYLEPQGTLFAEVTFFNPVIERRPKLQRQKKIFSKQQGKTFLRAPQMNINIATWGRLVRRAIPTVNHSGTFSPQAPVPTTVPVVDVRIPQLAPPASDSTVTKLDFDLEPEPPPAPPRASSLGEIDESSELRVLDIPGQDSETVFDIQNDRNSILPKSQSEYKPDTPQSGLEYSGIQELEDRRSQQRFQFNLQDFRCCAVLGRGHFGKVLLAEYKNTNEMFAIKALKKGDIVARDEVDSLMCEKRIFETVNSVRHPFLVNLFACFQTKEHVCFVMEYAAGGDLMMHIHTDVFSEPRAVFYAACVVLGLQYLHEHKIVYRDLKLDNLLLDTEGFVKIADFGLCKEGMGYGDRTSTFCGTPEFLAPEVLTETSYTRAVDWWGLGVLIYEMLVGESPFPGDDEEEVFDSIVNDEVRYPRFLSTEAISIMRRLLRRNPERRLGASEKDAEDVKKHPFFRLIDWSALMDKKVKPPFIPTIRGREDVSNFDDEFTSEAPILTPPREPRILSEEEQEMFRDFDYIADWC
Chain of RAC-alpha serine/threonine-protein kinase (Homo sapiens) (P31749 whole entry, the tested form may be a part): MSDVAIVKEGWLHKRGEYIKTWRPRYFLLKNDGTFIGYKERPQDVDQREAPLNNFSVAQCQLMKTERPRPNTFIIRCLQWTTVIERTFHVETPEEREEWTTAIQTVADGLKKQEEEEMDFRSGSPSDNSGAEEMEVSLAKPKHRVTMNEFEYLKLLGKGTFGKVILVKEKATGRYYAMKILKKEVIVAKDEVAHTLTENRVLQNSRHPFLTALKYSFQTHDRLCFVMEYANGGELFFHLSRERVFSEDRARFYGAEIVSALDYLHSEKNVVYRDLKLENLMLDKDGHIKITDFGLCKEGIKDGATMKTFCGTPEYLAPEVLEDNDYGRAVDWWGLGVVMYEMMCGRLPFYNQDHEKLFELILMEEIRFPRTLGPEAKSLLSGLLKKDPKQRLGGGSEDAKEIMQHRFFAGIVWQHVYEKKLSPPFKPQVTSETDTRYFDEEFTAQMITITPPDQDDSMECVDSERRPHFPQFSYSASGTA
Chain of 5'-AMP-activated protein kinase catalytic subunit alpha-1 (Homo sapiens) (Q13131 whole entry, looked up, the tested form may be a part): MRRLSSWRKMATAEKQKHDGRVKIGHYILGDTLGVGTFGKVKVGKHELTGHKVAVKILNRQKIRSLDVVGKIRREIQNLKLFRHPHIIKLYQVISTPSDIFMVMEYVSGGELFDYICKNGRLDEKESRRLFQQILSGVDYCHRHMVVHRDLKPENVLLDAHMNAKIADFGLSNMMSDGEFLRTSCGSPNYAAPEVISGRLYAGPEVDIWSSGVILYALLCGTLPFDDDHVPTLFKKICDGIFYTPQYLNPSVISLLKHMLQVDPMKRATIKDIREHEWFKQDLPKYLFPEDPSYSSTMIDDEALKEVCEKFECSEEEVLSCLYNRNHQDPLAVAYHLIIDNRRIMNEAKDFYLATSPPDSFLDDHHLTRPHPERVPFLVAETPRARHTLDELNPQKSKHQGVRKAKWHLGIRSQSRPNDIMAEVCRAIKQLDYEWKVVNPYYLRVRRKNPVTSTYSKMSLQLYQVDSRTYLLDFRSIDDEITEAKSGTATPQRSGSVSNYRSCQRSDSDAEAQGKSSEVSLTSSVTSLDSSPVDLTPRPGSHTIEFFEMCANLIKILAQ
Chain of Rho-associated protein kinase 2 (Homo sapiens) (O75116 whole entry, looked up, the tested form may be a part): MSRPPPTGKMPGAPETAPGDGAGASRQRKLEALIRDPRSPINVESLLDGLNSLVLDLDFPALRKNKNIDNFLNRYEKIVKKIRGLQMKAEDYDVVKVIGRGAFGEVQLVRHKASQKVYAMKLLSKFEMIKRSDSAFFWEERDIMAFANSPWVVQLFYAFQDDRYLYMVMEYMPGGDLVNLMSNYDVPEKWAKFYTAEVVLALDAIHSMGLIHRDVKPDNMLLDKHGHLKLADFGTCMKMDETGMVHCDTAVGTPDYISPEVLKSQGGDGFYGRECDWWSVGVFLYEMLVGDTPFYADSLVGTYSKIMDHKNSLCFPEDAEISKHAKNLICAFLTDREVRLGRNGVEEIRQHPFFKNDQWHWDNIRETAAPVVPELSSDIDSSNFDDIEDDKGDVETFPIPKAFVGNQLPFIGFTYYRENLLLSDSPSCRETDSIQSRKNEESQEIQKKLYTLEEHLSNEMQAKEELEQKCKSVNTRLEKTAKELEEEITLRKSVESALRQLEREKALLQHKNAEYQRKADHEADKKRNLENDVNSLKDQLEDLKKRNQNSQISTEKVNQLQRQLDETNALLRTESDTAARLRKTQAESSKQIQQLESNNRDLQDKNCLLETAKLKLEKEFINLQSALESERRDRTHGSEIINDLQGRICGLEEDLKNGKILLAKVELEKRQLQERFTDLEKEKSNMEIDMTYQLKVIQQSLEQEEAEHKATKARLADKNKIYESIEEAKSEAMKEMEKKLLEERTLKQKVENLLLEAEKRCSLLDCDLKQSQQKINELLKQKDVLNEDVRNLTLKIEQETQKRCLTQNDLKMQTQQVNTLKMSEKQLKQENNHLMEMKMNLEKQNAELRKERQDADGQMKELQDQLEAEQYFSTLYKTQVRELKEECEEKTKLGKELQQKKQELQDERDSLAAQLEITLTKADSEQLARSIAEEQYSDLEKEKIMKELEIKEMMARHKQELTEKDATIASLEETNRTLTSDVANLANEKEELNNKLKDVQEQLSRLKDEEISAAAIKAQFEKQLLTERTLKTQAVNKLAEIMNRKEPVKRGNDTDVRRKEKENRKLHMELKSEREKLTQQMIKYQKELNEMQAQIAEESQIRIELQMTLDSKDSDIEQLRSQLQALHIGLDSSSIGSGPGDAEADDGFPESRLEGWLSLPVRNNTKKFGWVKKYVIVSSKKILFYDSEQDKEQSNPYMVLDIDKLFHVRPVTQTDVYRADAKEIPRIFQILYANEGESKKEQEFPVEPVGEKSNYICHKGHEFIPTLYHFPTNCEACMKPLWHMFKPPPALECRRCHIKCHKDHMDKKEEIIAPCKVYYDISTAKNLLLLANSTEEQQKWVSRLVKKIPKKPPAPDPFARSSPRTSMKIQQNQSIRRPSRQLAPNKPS
Chain of Serine/threonine-protein kinase Chk2 (Homo sapiens) (O96017 whole entry): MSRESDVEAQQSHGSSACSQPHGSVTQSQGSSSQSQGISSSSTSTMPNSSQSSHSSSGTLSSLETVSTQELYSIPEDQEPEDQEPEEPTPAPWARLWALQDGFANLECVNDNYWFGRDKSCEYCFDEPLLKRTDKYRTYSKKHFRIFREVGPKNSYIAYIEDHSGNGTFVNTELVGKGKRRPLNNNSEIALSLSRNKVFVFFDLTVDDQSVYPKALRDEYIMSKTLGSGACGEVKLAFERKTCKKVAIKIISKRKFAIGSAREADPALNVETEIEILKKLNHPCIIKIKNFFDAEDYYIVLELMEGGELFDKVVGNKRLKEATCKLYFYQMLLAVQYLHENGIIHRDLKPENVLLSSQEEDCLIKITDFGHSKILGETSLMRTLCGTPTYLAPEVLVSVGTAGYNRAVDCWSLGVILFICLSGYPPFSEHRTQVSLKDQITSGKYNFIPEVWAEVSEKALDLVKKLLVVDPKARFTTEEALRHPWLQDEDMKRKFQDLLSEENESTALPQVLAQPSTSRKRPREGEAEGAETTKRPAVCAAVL
Chain of 3-phosphoinositide-dependent protein kinase 1 (Homo sapiens) (O15530 whole entry, looked up): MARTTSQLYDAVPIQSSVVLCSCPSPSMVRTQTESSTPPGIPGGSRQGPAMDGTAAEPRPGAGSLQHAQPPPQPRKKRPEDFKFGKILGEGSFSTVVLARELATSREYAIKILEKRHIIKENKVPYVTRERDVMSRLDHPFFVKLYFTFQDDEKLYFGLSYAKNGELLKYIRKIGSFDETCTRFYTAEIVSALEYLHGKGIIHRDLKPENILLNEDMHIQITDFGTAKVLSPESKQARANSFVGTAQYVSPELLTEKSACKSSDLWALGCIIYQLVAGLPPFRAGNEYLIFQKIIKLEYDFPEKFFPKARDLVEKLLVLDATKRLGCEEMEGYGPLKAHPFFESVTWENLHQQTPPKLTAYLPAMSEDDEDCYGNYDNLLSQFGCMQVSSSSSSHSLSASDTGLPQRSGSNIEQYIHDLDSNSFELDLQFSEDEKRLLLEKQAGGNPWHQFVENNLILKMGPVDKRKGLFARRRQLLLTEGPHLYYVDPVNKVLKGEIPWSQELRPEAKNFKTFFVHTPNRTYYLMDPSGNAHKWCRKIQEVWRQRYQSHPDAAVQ

Regarding `COc1ccc2[nH]cc(/C=C3\C(=O)Nc4ccc(S(N)(=O)=O)cc43)c2c1`, the Activity in test [1] was 45%; in test [2] it was 64%; in test [3], 9%; in test [4], 112%; in test [5], 81%; in [6], 12%. For the same compound, the Activity was 61% in test [7]; 72% in test [8]; 101% in test [9]; 98% in [10]; 48% in [11].

As to `CNS(=O)(=O)c1ccc2c(c1)/C(=C/c1cn(C)c3ccc(OC)cc13)C(=O)N2`, the Activity came out at 59% in test [1]; 95% in [2]; 37% in [3]; 92% in [4]; 86% in test [5]; 75% in test [6]. For the same compound, the Activity is 79% in test [7]; 88% in test [8]; 98% in [9]; 92% in test [10]; 76% in [11].

As for `COc1ccc2c(c1)c(/C=C1\C(=O)Nc3ccc(S(N)(=O)=O)cc31)cn2C`, the Activity is 12% in test [1]; 89% in test [2]; 20% in test [3]; 102% in [4]; 89% in test [5]; 39% in test [6]. The Activity came to 87% in [7]; 89% in test [8]; 96% in test [9]; 93% in test [10]; 50% in [11].

For `Cn1cc(/C=C2\C(=O)Nc3ccc(S(N)(=O)=O)cc32)c2ccccc21`, the Activity in test [1] was determined as 6%; in test [2], 63%; in test [3], 3%; in test [4] it was 103%; in test [5] it was 78%; in test [6], 5%. Also, the Activity in test [7] came out at 55%; in [8] it was 56%; in [9] it was 97%; in test [10], 90%; in [11] it was 42%.

On to `CN(C)S(=O)(=O)c1ccc2c(c1)/C(=C/c1cn(C)c3ccc(O)cc13)C(=O)N2`, for which the Activity amounted to 68% in test [1]; 92% in test [2]; 52% in [3]; 106% in test [4]; 89% in [5]; 92% in [6]. Moreover, the Activity in test [7] stood at 69%; in [8], 87%; in [9], 105%; in [10], 94%; in test [11] it was 11%.

For the compound `COc1ccc2c(c1)c(/C=C1\C(=O)Nc3ccc(S(=O)(=O)N(C)C)cc31)cn2C`, the Activity in test [1] came out at 91%; in test [2], 88%; in test [3], 83%; in test [4] it was 86%; in [5] it was 94%; in test [6] it was 99%. In addition, the Activity in [7] came out at 89%; in [8], 91%; in [9] it was 93%; in [10], 99%; in test [11], 71%.
